Values of other authors in US10059681B2, “Disubstituted maleic anhydrides with altered kinetics of ring closure” (Arrowhead Madison Inc., priority 2011, dated 2018).

Assays:
[1] = Kirby 1980
[2] = Eberson et al. 1971

K=k1/k−1 of equilibrium in water toward ring closure [2]	Compound	kobs of amine release [1]
–	CNC(=O)C1=C(C(=O)O)CCCC1	3.5×10^−2
5.3	C/C(C(=O)O)=C(\C)C(=O)O [dimethyl maleic acid]	–
10^−2	O=C(O)c1ccccc1C(=O)O [phthalic acid]	–
